Test results as given in article PMC7696940, “Effects of Rationally Designed Physico-Chemical Variants of the Peptide PuroA on Biocidal Activity towards Bacterial and Mammalian Cells” (International Journal of Molecular Sciences, 2020).
In brackets after ≈: the same amount, converted by molar mass. Several values for one entry are separate records, joined by “and”; a condition that tells them apart may be missing. Identical values can stand only once. Where no end group is shown, it is not given here.

Experiments:
[1] = tested on: E. coli ATCC25922; assay type: cell-based, Escherichia coli; conditions: MHB; for MIC E. coli, No NaCl: 0 mM NaCl; for MIC E. coli, No NaCl / MIC E. coli, With 50mM NaCl / MIC E. coli, With 100mM NaCl / MIC E. coli, With 150mM NaCl: triplicate, mode; for MIC E. coli ATCC25922: 37 °C overnight, A595, mode of three independent experiments
Description: (§1) The activity of peptides was determined against the Gram-positive Staphylococcus aureus (ATCC 25923), and the Gram-negative Escherichia coli (ATCC 25922) and Pseudomonas aeruginosa (ATCC 9027) bacteria. Selected peptides were also tested against two clinical isolates of methicillin-resistant Staphylococcus aureus (MRSA), M173525 and M180920, kindly provided by Dr P. B. Ward (Microbiology Department, Austin and Repatriation Medical Centre, Heidelberg West, Victoria, Australia). The Minimum inhibitory concentration (MIC) of peptides was determined by the microtitre broth dilution method, as described in Phillips et al.. Briefly, bacteria were grown in Mueller-Hinton Broth (MHB) at 37 °C overnight with shaking (200 rpm). The cultures were adjusted to 0.5 McFarland turbidity standard (approximately 1 × 10^8 colony forming units (CFU)/mL), then diluted 1:100 in MHB (1 × 10^6 CFU/mL). A total of 75 μL of these suspensions were mixed with 25 μL of peptide solutions (final concentrations 250 to 0.5 μg/mL) and the microtitre plates incubated overnight at 37 °C. Positive growth controls (inoculum and MHB, with no peptide) and sterility controls (0.01% glacial acetic) were also included. Post-incubations, the absorbance of cultures at 595 nm was measured using a microplate reader (POLARstar Omega, Germany). […] To evaluate salt sensitivity of peptides up to physiological levels (150 mM NaCl), overnight cultures of S. aureus and E. coli adjusted to 0.5 McFarland turbidity standard were diluted 1:100 in MHB containing 0, 50, 100 or 150 mM NaCl, and the MICs of peptides determined as above. All tests were conducted in triplicate. The results are shown as the mode of values obtained.

[2] = tested on: S. aureus ATCC25923; assay type: cell-based, Staphylococcus aureus; conditions: MHB; for MIC S. aureus, No NaCl: 0 mM NaCl; for MIC S. aureus, No NaCl / MIC S. aureus, With 50mM NaCl / MIC S. aureus, With 100mM NaCl / MIC S. aureus, With 150mM NaCl: triplicate, mode; for MIC S. aureus ATCC25923: 37 °C overnight, A595, mode of three independent experiments
Description: as §1

[3] = tested on: P. aeruginosa ATCC9027; assay type: cell-based, Pseudomonas aeruginosa; conditions: MHB, 37 °C overnight, A595; mode of three independent experiments
Description: as §1

[4] = tested on: C. albicans FRR 5580; assay type: cell-based, Candida albicans; conditions: PDB, overnight; mode of three independent experiments
Description: The assay was carried out as per Alfred et al.. Candida albicans (FRR 5580) was grown in potato dextrose broth (PDB; Difco-BD, Bergen County, NJ, USA) overnight at 30 °C with shaking (200 rpm) until exponential phase, then adjusted to 0.5 McFarland turbidity standard (approximately 1 × 10^6 cells/mL) and diluted 1:200 with PDB to 0.5 − 2 × 10^3 cells/mL. Peptides in 25 μL volumes were mixed with 75 μL of the yeast suspensions. The controls were included as above. The plates were incubated overnight and absorbance was recorded. All the tests were conducted in triplicate.

[5] = tested on: MRSA M173525; assay type: cell-based, methicillin-resistant Staphylococcus aureus; conditions: clinical isolate; MHB, 37 °C overnight; mode of three independent experiments
Description: as §1

[6] = tested on: MRSA M180920; assay type: cell-based, methicillin-resistant Staphylococcus aureus; conditions: clinical isolate; MHB, 37 °C overnight; mode of three independent experiments
Description: as §1

[7] = tested on: MRSA M173525; test: Inhibition of initial cell attachment (CV and MTT assays); assay type: cell-based, methicillin-resistant Staphylococcus aureus; conditions: polystyrene, 24 h, 37 °C, triplicate
Description: The effects of PuroA and other selected peptides (based on their antibacterial activity) on both the initial cell attachment and 6 h preformed biofilms of MRSA on polystyrene were tested as described by Jadhav et al., at their respective 0.5 × MIC, 1 × MIC, and 2 × MIC concentrations. All tests were conducted in triplicate. For testing the inhibition of initial cell attachment, 100 μL of peptide solutions were added to the microtitre plates, then mixed with 100 μL of M173525 cell suspension (1 × 10^6 CFU/mL, cultured in tryptic soy broth medium (TSB; Oxoid) containing 1% glucose), or 100 μL of sterile MilliQ water as negative control. The plates were incubated at 37 °C for 24 h to allow cell attachment. The biofilm formation was then assessed using CV and MTT assays. […] Peptide solutions (100 μL) were then added, the plates incubated at 37 °C for 1 h and the biofilms assessed.
The assay works as an indicator of attached living and non-living biomass. Indirect assessment of cell attachment of MRSA was estimated using the modified CV assay as per Jadhav et al.. After incubations of the plates (for 24 h or 1 h, as above), the culture medium from each well was removed gently and any non-adherent bacteria removed by washing the plates five times with sterile distilled water (dH2O). The plates were air-dried, then oven-dried at 60 °C for 1 h. The biofilm cells in the wells were stained with 100 μL of 1% CV and incubated for 15 min at room temperature. Excess stain was removed by washing the plates three times with sterile dH2O. Ethanol (95%, 125 µL) was transferred to each well to de-stain the cells. The de-staining solution from each well was then transferred to a new plate and its absorbance measured at 595 nm. The percentage inhibition of biomass formation concentration was calculated as: ((OD595 nm control well without peptide − OD5 95 well with peptide)/OD595 nm control well without peptide) × 100. All tests were conducted in triplicate.
A modified methylthiazotetrazolium (MTT) (3-[4,5-dimethyl thiazol-2-yl]-2, 5-diphenyltetrazolium bromide) reduction assay was used, wherein the blue product (MTT salt reduced to formazan by dehydrogenases) is taken as a respiratory indicator of live cells. Briefly, MTT (Sigma-Aldrich, Gillingham, UK) was dissolved in PBS to 5 mg/mL. After incubations of plates (for 24 h or 1 h, as above), the culture medium was gently removed and the plates air-dried. PBS (100 μL) and MTT (5 µL, 5 mg/mL) were added to each well and the plates incubated for 3 h at 37 °C. The insoluble purple product was dissolved in 100 µL of dimethyl sulphoxide (DMSO, Sigma-Aldrich, Gillingham, UK) and the absorbance measured at 570 nm. The % inhibition of metabolic activity was calculated as: ((OD570 nm control well without peptide − OD570 nm well with peptide)/OD570 nm control well without peptide) × 100. All tests were conducted in triplicate.

Compound	MIC E. coli, No NaCl [1] [µg/mL]	MIC E. coli, With 50mM NaCl [1] [µg/mL]	MIC E. coli, With 100mM NaCl [1] [µg/mL]	MIC E. coli, With 150mM NaCl [1] [µg/mL]	MIC E. coli ATCC25922 [1] [µg/mL]	MIC S. aureus, No NaCl [2] [µg/mL]	MIC S. aureus, With 50mM NaCl [2] [µg/mL]	MIC S. aureus, With 100mM NaCl [2] [µg/mL]	MIC S. aureus, With 150mM NaCl [2] [µg/mL]	MIC S. aureus ATCC25923 [2] [µg/mL]	MIC P. aeruginosa ATCC9027 [3] [µg/mL]	MIC C. albicans FRR 5580 [4] [µg/mL]	MIC MRSA M173525 [5] [µg/mL]	MIC MRSA M180920 [6] [µg/mL]	Percentage of Inhibition of Initial MRSA Cells Attachment, CV ([7]; 0.5 × MIC) [%]	Percentage of Inhibition of Initial MRSA Cells Attachment, MTT ([7]; 0.5 × MIC) [%]	Percentage of Inhibition of Initial MRSA Cells Attachment, CV ([7]; 1 × MIC) [%]	Percentage of Inhibition of Initial MRSA Cells Attachment, MTT ([7]; 1 × MIC) [%]	Percentage of Inhibition of Initial MRSA Cells Attachment, CV ([7]; 2 × MIC) [%]	Percentage of Inhibition of Initial MRSA Cells Attachment, MTT ([7]; 2 × MIC)
CC(C)[C@H](NC(=O)[C@@H]1CCCN1C(=O)[C@@H](N)Cc1ccccc1)C(=O)N[C@H](C(=O)N[C@@H](Cc1c[nH]c2ccccc12)C(=O)N[C@@H](CCCNC(=N)N)C(=O)N[C@@H](Cc1c[nH]c2ccccc12)C(=O)N[C@@H](Cc1c[nH]c2ccccc12)C(=O)N[C@@H](CCCCN)C(=O)N[C@@H](Cc1c[nH]c2ccccc12)C(=O)N[C@@H](Cc1c[nH]c2ccccc12)C(=O)N[C@@H](CCCCN)C(=O)NCC(N)=O)[C@@H](C)O [PuroA]	16 (≈ 8.59 µM)	16 (≈ 8.59 µM)	32 (≈ 17.2 µM)	64 (≈ 34.4 µM)	16 (≈ 8.59 µM)	16 (≈ 8.59 µM)	16 (≈ 8.59 µM)	32 (≈ 17.2 µM)	64 (≈ 34.4 µM)	16 (≈ 8.59 µM)	64 (≈ 34.4 µM)	125 (≈ 67.1 µM)	16 (≈ 8.59 µM)	16 (≈ 8.59 µM)	70 ± 5.6	92 ± 1.5	75 ± 4.0	95 ± 1.1	79 ± 4.5	95% and 95 ± 0.5%
RKRWWRWWKWWKR-NH2 [Peptide P1]	16	16	16	16	–	16	16	16	16	–	16	64	16	8	72 ± 3.1	92 ± 3.0	75 ± 1.9	95 ± 2.3	78 ± 6.1	95 ± 2.5%
WRWWKWW-NH2 [Peptide W7]	4	4	4	4	4	8	8	8	8	8	32	64	8	8	69 ± 3.6	90 ± 2.9	75 ± 5.0	95 ± 4.0	76 ± 4.8	96 ± 1.5%
WWRWWKWW-NH2 [WW]	8	8	8	8	8	8	8	8	8	8	32	64	4	4	71.5 ± 3.5	90 ± 2.0	73 ± 6.2	95 ± 3.1	79 ± 7.5	96 ± 0.5%
